What was measured:
5-HT1A = molecular target: T1, 5-HT1A (Homo sapiens, UniProt P08908); assay: binding to 5-HT1A receptor
T1 sequence (P08908 1-422): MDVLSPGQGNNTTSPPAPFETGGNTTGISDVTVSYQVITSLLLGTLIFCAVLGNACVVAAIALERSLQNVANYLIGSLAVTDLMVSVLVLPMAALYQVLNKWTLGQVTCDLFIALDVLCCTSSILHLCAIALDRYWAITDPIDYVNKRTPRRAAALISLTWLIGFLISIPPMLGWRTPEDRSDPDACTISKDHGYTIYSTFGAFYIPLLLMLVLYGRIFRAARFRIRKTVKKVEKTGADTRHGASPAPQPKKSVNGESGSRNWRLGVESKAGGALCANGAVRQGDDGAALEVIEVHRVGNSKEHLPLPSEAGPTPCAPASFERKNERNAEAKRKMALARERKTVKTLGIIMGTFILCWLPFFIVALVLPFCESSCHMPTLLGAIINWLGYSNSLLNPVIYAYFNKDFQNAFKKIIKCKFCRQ
Description: (§1) 2R,6R-hydroxynorketamine was investigated for binding to monoamine oxidases A and B, monoamine transporters, as well as a variety of 5HT receptors.

5-HT2A = 5-HT2A (Homo sapiens, UniProt P28223); assay: binding to 5-HT2A receptor
Description: as §1

5-HT2B = 5-HT2B (Homo sapiens, UniProt P41595); assay: binding to 5-HT2B receptor
Description: as §1

5-HT2C = molecular target: T2, 5-HT2C (Homo sapiens, UniProt P28335); assay: binding to 5-HT2C receptor
T2 sequence (P28335 33-458): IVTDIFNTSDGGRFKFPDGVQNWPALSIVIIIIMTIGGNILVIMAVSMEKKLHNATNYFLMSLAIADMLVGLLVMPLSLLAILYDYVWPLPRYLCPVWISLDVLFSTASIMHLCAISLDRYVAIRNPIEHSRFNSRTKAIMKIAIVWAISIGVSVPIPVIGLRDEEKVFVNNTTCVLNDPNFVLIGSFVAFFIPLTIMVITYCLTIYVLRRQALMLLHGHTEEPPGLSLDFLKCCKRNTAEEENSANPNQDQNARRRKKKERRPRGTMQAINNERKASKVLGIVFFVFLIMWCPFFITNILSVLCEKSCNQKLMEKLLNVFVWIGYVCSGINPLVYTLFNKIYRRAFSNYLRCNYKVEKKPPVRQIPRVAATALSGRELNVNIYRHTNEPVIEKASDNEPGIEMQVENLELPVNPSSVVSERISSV
Description: as §1

[1] = molecular target: norepinephrine transporter (Homo sapiens, UniProt P23975); assay: binding to norepinephrine transporter
Description: as §1

5-HT transporter = 5-HT transporter (Homo sapiens, UniProt P31645); assay: binding to 5-HT transporter
Description: as §1

plasma binding proteins [2] = assay: fraction unbound in 100% plasma, mouse; type: in vitro ADME
Description: (§2) While the risk of DDIs due to displacement from plasma binding proteins (PPBs) is relatively low, it should be considered for drugs which display a high proportion PPB (fraction unbound (fu)<1%).
(§3) The fu was investigated for 2R,6R-hydroxynorketamine using a 100% plasma from 4 test species.

plasma binding proteins [3] = assay: fraction unbound in 100% plasma, rat; type: in vitro ADME
Description: as §2, §3

CYP2D6 = CYP2D6 (Homo sapiens, UniProt P10635); assay: CYP inhibition assay, CYP2D6; type: in vitro ADME
Description: (§4) Cytochrome P450s (CYPs) are a family of enzymes that play a primary role in the metabolism of a wide variety of drugs. 2R,6R-hydroxynorketamine was investigated for its potential to inhibit the action of 7 key CYP enzymes using an inhibition assay measuring reduction in the formation of metabolites compared to control.

CYP1A2 = molecular target: T3, CYP1A2 (Homo sapiens, UniProt P05177); assay: CYP inhibition assay, CYP1A2; type: in vitro ADME
T3 sequence (P05177 1-516): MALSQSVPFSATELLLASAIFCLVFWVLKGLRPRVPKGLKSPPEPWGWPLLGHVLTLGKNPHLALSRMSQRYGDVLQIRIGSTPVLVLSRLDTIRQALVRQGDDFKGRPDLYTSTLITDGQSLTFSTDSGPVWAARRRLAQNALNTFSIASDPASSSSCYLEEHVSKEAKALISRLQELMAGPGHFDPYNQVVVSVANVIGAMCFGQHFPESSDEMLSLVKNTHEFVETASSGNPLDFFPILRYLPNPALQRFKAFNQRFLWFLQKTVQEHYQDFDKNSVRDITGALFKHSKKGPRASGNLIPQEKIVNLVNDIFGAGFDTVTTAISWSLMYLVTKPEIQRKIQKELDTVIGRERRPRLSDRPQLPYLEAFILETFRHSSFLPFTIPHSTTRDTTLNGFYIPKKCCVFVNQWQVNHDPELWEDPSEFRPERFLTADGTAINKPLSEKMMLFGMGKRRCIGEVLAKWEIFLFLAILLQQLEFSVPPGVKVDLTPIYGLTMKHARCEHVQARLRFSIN
Description: as §4

CYP3A4 = CYP3A4 (Homo sapiens, UniProt P08684); assay: CYP inhibition assay, CYP3A4 (substrates midazolam and testosterone); type: in vitro ADME; conditions: for inhibition at 0.4 µM / inhibition at 1 µM / inhibition at 4 µM / inhibition at 10 µM / inhibition at 40 µM / inhibition at 100 µM: human
Description: as §4

UGT2B7 = UGT2B7 (Homo sapiens, UniProt P16662); assay: UGT inhibition assay, UGT2B7; type: in vitro ADME
[4] = DSC analysis of compatibility with diluents and capsule shells
[5] = probe midazolam, Substrate = midazolam
[6] = probe testosterone, Substrate = testosterone

CYP3A4, sequence (P08684 whole entry): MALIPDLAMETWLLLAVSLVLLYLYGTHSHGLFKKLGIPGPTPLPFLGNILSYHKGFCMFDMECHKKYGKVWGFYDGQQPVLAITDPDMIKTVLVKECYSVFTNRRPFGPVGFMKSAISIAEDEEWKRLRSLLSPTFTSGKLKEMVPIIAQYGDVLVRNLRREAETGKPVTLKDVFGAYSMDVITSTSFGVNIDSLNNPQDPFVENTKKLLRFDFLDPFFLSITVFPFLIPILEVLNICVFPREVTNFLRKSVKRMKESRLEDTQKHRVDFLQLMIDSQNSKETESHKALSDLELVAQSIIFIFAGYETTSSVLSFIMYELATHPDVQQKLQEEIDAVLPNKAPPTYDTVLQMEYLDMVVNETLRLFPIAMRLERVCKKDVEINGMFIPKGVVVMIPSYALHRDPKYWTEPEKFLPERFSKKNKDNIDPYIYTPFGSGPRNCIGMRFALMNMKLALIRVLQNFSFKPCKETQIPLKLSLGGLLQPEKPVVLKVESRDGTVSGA
CYP2D6, sequence (P10635 whole entry): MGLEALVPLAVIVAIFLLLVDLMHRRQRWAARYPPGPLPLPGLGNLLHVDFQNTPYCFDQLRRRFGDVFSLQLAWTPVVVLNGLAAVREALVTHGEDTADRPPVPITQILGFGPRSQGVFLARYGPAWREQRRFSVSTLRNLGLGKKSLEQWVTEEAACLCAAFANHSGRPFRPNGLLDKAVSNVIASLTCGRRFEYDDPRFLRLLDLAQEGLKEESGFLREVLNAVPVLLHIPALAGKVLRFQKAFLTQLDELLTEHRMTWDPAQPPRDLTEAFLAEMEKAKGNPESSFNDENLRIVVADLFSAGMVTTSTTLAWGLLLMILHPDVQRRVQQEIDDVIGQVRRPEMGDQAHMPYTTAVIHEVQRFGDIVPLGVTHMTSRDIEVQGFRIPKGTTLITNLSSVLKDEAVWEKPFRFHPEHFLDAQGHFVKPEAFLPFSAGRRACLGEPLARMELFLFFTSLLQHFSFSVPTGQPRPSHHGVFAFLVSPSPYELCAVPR
5-HT2A, sequence (P28223 whole entry): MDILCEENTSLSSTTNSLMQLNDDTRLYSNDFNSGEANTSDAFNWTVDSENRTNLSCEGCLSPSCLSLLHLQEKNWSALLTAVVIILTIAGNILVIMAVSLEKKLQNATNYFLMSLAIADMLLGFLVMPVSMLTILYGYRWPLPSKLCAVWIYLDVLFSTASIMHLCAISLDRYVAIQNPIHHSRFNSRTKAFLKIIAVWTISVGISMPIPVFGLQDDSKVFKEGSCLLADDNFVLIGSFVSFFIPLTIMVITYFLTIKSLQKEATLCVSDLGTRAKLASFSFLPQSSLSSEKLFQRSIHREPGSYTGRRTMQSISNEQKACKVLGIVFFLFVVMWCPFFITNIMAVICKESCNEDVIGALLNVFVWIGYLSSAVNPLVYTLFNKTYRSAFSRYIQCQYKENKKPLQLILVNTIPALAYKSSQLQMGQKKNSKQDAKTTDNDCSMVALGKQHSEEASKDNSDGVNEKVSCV
5-HT2B, sequence (P41595 whole entry, species assumed): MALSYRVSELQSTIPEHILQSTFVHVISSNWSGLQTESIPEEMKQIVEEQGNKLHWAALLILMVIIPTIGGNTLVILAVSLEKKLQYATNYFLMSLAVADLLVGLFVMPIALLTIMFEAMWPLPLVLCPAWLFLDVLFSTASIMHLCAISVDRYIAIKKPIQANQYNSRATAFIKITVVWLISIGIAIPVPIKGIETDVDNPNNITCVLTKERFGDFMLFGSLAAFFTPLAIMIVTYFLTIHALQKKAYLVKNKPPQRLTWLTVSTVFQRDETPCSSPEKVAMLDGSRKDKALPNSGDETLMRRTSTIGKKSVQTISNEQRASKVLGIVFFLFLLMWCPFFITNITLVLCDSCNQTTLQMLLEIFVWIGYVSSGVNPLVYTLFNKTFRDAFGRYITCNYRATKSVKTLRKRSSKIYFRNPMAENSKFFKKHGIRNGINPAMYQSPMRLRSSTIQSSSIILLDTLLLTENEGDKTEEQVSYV
5-HT transporter, sequence (P31645 whole entry, species assumed): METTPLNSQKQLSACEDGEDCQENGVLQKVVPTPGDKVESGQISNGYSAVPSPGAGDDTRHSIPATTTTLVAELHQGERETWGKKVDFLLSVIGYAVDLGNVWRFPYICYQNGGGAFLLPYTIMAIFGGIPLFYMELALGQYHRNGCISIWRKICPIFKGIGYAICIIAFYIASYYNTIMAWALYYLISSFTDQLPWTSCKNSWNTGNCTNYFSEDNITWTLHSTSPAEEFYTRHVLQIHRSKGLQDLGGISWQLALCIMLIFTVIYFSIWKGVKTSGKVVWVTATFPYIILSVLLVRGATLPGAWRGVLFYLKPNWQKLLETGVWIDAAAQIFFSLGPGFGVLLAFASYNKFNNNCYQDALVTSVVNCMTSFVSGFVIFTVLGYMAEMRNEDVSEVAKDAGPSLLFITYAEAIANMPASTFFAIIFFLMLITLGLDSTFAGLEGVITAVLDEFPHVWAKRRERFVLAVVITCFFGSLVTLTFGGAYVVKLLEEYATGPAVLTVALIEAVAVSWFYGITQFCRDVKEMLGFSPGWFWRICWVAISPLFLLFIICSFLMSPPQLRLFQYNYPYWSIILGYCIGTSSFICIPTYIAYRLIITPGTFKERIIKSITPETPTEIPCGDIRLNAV
norepinephrine transporter, sequence (P23975 whole entry, species assumed): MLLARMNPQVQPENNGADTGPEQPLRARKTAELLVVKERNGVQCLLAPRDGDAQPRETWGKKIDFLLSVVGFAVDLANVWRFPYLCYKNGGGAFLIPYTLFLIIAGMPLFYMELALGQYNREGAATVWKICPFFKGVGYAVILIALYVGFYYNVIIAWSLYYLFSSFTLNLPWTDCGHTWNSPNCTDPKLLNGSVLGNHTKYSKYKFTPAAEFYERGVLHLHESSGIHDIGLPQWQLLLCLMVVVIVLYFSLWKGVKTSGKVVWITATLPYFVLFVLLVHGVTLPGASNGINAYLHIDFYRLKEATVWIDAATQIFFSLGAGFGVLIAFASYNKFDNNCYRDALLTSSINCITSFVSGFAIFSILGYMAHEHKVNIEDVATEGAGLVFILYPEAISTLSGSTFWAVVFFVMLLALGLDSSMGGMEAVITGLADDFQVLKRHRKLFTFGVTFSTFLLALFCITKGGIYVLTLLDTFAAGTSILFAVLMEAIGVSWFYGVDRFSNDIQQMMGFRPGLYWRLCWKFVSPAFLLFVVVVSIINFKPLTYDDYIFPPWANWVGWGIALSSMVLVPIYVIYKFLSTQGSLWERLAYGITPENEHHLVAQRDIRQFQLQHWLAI
UGT2B7, sequence (P16662 24-529): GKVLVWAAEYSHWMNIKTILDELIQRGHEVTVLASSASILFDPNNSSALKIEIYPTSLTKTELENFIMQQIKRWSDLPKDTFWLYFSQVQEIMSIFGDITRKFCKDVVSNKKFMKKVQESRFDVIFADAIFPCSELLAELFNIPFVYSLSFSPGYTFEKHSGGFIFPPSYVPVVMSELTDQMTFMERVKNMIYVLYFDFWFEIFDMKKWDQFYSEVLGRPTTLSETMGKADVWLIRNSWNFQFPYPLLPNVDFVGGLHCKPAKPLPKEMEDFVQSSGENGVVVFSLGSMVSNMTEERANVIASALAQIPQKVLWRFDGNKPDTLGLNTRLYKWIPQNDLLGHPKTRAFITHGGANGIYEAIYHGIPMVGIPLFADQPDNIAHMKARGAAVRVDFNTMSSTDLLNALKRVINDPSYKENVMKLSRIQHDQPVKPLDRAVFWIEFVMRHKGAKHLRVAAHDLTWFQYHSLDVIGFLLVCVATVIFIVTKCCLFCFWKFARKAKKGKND

N[C@@]1(c2ccccc2Cl)CCC[C@@H](O)C1=O [2R,6R-hydroxynorketamine]
% Inhibition of Control Specific Binding (5-HT1A): 5%
% of Control Specific Binding (5-HT1A): 97.9%
binding to 5HT1A receptor subtype (5-HT1A): does not bind
% Inhibition of Control Specific Binding (5-HT2A): 0%
% of Control Specific Binding (5-HT2A): 103.8%
binding to 5HT2A receptor subtype (5-HT2A): does not bind
% Inhibition of Control Specific Binding (5-HT2B): 5%
% of Control Specific Binding (5-HT2B): 100.9%
binding to 5HT2B receptor subtype (5-HT2B): does not bind
% Inhibition of Control Specific Binding (5-HT2C): 10%
% of Control Specific Binding (5-HT2C): 91.1%
binding to 5HT2C receptor subtype (5-HT2C): does not bind
% Inhibition of Control Specific Binding [1]: −16%
% of Control Specific Binding [1]: 117.6%
% Inhibition of Control Specific Binding (5-HT transporter): 2%
% of Control Specific Binding (5-HT transporter): 102.0%
plasma protein binding (PPB), words (plasma binding proteins [2]): low PPB
plasma protein binding (PPB), words (plasma binding proteins [3]): low PPB
inhibition at 0.4 µM (CYP2D6; 0.4 μM): 3.16%
inhibition at 1 µM (CYP2D6; 1 μM): 6.65%
inhibition at 4 µM (CYP2D6; 4 μM): 11.5%
inhibition at 10 µM (CYP2D6; 10 μM): 9.41%
inhibition at 40 µM (CYP2D6; 40 μM): 11.2%
inhibition at 100 µM (CYP2D6; 100 μM): 5.73%
IC50 (CYP1A2): ~100 µM
inhibition at 0.4 µM (CYP1A2; 0.4 μM): 7.55%
inhibition at 1 µM (CYP1A2; 1 μM): 8.8%
inhibition at 4 µM (CYP1A2; 4 μM): 11.7%
inhibition at 10 µM (CYP1A2; 10 μM): 19.3%
inhibition at 40 µM (CYP1A2; 40 μM): 24.8%
inhibition at 100 µM (CYP1A2; 100 μM): 48.6%
inhibition at 0.4 µM (CYP3A4; [5]): 11.5%
inhibition at 1 µM (CYP3A4; [5]): 8.44%
inhibition at 4 µM (CYP3A4; [5]): 15.7%
inhibition at 10 µM (CYP3A4; [5]): 25.7%
inhibition at 40 µM (CYP3A4; [5]): 43.7%
inhibition at 100 µM (CYP3A4; [5]): 57.5%
inhibition at 0.4 µM (CYP3A4; [6]): 1.62%
inhibition at 1 µM (CYP3A4; [6]): -0.509%
inhibition at 4 µM (CYP3A4; [6]): 7.04%
inhibition at 10 µM (CYP3A4; [6]): 12.4%
inhibition at 40 µM (CYP3A4; [6]): 35.2%
inhibition at 100 µM (CYP3A4; [6]): 53.4%
IC50 (CYP3A4; substrate midazolam): 69 µM
IC50 (CYP3A4; substrate testosterone): 81 µM
inhibition of UGT2B7 (UGT2B7): does not inhibit
compatibility with hydroxypropyl methylcellulose capsule shells [4]: compatibility
compatibility with dicalcium phosphate ([4]; DSC): compatibility
compatibility with microcrystalline cellulose ([4]; DSC): compatibility
compatibility with lactose monohydrate ([4]; DSC, binary mix, 1:2 ratio of API:Excipient): incompatible
